# Positions count from the first letter of the chain named.
# T1: HadA (Ralstonia pickettii, UniProt Q53008)
# T1 construct: recombinant, E. coli plasmid hadAWT-pET-11a; homotetramer (dimer of dimers); residues 1-517 by domain borders
# T1 sequence (Q53008 1-517): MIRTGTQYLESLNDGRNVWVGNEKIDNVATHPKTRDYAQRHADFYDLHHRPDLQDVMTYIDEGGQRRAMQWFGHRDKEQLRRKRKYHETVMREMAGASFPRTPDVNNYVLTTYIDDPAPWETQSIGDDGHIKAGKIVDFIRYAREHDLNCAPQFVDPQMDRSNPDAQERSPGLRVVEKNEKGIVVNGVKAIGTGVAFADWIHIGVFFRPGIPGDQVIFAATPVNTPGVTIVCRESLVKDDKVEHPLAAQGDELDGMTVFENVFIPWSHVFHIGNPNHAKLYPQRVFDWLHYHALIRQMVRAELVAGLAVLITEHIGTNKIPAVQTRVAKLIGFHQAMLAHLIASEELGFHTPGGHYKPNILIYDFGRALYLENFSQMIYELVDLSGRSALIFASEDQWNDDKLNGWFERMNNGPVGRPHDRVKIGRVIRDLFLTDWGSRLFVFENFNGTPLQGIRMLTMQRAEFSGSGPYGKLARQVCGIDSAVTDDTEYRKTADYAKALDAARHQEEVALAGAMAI
# B1: wild-type HadA, flavin-dependent monooxygenase/dehalogenase component from Ralstonia pickettii (enzyme, UniProt Q53008 1-517, looked up)
# chain: T1 sequence (Q53008 1-517)
# notes: HadA monooxygenase of the had pathway, Ralstonia pickettii; each protomer is described as N-terminal domain (residues 1-146), beta-sheet domain (147-275) and C-terminal domain (276-517); also called HadAWT; HadA monooxygenase; source: plasmid hadAWT-pET-11a
# B2: HadA Phe441Val variant (enzyme)
# chain: T1 sequence (Q53008 1-517) with F441V
# notes: HadA monooxygenase, Ralstonia pickettii, with Phe441Val; same limits as the wild type (domains described over residues 1-517); source: site-directed mutagenesis of hadAWT-pET-11a
# How the values were obtained:
# [1] = biological target: T1, HadA; assay: X-ray crystal structure, […] Å; type: binding
# [2] = biological target: T1, HadA; assay: stopped-flow and HPLC of hydroquinone product; type: biochemical; conditions: 0.1-6.4 mM 4CP preincubated with enzyme; 25 μM FADH-; 20 mM Hepes pH 7.5; substrate inhibition by dead-end complex
# [3] = biological target: the molecule itself; assay: crystal structure; HadA (0.3 mM) mixed with FADH- (12 mM) and 4NP (12 mM) in an anaerobic glove box, incubated 2 h; microbatch at 25 °C, sodium citrate, PEG3350, 5% trifluoroethanol, 0.1 M Bis-Tris propane pH 6.5; data at 100 K; molecular replacement with apo-HadA (PDB 6JHM chain A)
molecule,measurement,setting,value
O=[N+]([O-])c1ccc(O)cc1 [4-nitrophenol],"X-ray crystal structure, 2.3 Å","[1]; ternary complex with FADH-, active site of subunit A, second site at C/D dimer interface (two 4NP, quadruple π-stacking)",only one 4NP molecule could be clearly seen in the expected pocket of subunit A
Oc1ccc(Cl)cc1 [4-chlorophenol],stopped-flow and HPLC of hydroquinone product,[2],increasing the 4CP concentration significantly altered the kinetics of the reaction
Cc1cc2c(cc1C)N(C[C@H](O)[C@H](O)[C@H](O)COP(=O)(O)OP(=O)(O)OC[C@H]1O[C@@H](n3cnc4c(N)ncnc43)[C@H](O)[C@@H]1O)c1[nH]c(=O)[nH]c(=O)c1N2 [FADH^–],"X-ray crystal structure, 2.3 Å",[1]; ternary complex with 4NP,strong electron densities could be observed for all four FADH^– molecules
B1,stoichiometry N,[3],4
B2,binding result,[3],binds

# Reference: PMC8342789, “Structural insights into a flavin-dependent dehalogenase HadA explain catalysis and substrate inhibition via quadruple π-stacking” (The Journal of Biological Chemistry, 2021)
